Laboratory results from ChEMBL document CHEMBL5230110, “FabI (enoyl acyl carrier protein reductase) - A potential broad spectrum therapeutic target and its inhibitors” (Eur J Med Chem, 2020).
≈ marks a conversion by molar mass, not a printed value.

What was measured:
[1] = Inhibition of Bacillus anthracis enoyl ACP reductase assessed as inhibition of bacterial growth
Bacillus anthracis = assay: Antibacterial activity against Bacillus anthracis assessed as reduction in bacterial growth measured after 24 hrs by broth microdilution method; format: functional
Staphylococcus aureus [2] = assay: Antibacterial activity against methicillin resistant Staphylococcus aureus assessed as reduction in bacterial growth incubated for 12 hrs by microdilution method; format: functional
Staphylococcus aureus [3] = assay: Bactericidal activity against methicillin-resistant Staphylococcus aureus measured after 24 hrs by sub-culturing; format: functional
Staphylococcus aureus [4] = assay: Bactericidal activity against methicillin-sensitive Staphylococcus aureus measured after 24 hrs by sub-culturing; format: functional
HeLa = assay: Cytotoxicity against human HeLa cells assessed as inhibition of cell growth incubated for 48 hrs by CCK8 assay; format: functional, cell-based
[5] = Cytotoxicity against mouse MH-S cells; format: functional, cell-based
[6] = molecular target: T1, Enoyl-[acyl-carrier-protein] reductase [NADH] FabI (Escherichia coli K-12, UniProt P0AEK4); assay: Inhibition of Escherichia coli FabI in the presence of NADH using crotonyl CoA as substrate by measuring NADH consumption rate
T1 sequence (P0AEK4 whole entry): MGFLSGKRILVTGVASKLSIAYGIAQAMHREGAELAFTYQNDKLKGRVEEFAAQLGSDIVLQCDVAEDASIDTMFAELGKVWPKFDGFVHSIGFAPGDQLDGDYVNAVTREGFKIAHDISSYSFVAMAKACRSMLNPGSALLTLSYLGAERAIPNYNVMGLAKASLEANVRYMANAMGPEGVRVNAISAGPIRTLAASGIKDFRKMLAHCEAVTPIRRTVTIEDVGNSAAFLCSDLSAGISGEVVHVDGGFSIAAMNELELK

Staphylococcus aureus [7] = assay: Antibacterial activity against methicillin-susceptible Staphylococcus aureus assessed as reduction in bacterial growth; format: functional
Staphylococcus aureus [8] = assay: Antibacterial activity in Swiss albino mouse model infected with Methicillin-resistant Staphylococcus aureus NRS 382 assessed as reduction in bacterial growth; format: functional
Staphylococcus aureus [9] = assay: Antibacterial activity in Swiss albino mouse model infected with Methicillin- sensitive Staphylococcus aureus ATCC 29213 assessed as reduction in bacterial growth; format: functional
[10] = molecular target: T1, Enoyl-[acyl-carrier-protein] reductase [NADH] FabI; assay: Inhibition of Escherichia coli DH5alpha FabI in the presence of NADH using crotonyl CoA as substrate by measuring NADH consumption rate
[11] = molecular target: T2, Enoyl-[acyl-carrier-protein] reductase [NADPH] FabI (Staphylococcus aureus, UniProt Q6GI75); assay: Inhibition of Staphylococcus aureus FabI in the presence of NADH using crotonyl CoA as substrate by measuring NADH consumption rate
T2 sequence (Q6GI75 whole entry): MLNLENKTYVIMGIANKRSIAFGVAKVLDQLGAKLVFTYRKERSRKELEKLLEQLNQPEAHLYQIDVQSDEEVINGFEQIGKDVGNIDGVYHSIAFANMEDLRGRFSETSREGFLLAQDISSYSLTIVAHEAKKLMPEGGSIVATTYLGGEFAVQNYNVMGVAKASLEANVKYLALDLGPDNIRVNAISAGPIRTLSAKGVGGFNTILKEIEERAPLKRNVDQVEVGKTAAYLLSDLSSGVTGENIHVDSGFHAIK

[12] = molecular target: T3, Enoyl-[acyl-carrier-protein] reductase [NADH] FabI (Haemophilus influenzae (strain ATCC 51907 / DSM 11121 / KW20 / Rd), UniProt P44432); assay: Inhibition of Haemophilus influenzae ATCC 51907 FabI assessed as by measuring NADH consumption rate
T3 sequence (P44432 whole entry): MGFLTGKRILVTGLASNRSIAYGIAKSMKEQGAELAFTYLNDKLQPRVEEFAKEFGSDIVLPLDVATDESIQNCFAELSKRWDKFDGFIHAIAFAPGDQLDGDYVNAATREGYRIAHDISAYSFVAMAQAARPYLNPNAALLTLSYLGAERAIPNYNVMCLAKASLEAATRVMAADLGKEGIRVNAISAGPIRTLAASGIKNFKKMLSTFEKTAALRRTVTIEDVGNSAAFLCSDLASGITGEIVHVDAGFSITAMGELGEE

[13] = system: Staphylococcus epidermidis; assay: Antibacterial activity against Methicillin-resistant Staphylococcus epidermidis ATCC 35984 assessed as reduction in bacterial growth; format: functional
Staphylococcus aureus [14] = assay: In vivo antibacterial activity against methicillin-resistant Staphylococcus aureus infected in murine assessed as reduction in bacterial burden; format: functional
[15] = system: Mycobacterium tuberculosis; assay: Antimycobacterial activity against Mycobacterium tuberculosis ATCC 25618 extracellular forms assessed as inhibition of microbial growth; format: functional
[16] = system: Mycobacterium tuberculosis; assay: Antimycobacterial activity against Mycobacterium tuberculosis H37Rv assessed as reduction in bacterial growth incubated for 7 days by dye based assay; format: functional; conditions: 168 h, time 7 day
Staphylococcus aureus [17] = assay: Antibacterial activity against Staphylococcus aureus assessed as bacterial growth inhibition; format: functional
Escherichia coli [18] = assay: Antibacterial activity against Escherichia coli assessed as bacterial growth inhibition; format: functional
Pseudomonas aeruginosa = assay: Antibacterial activity against Pseudomonas aeruginosa assessed as bacterial growth inhibition; format: functional
[19] = Cytotoxicity against human HepG2 cells assessed as reduction in cell viability […] incubated for 48 hrs by MTT assay; format: toxicity, cell-based
[20] = Cytotoxicity against African green monkey Vero cells assessed as reduction in cell viability by coulter counter method; format: toxicity, cell-based; conditions: chlorocebus sabaeus
[21] = Selectivity index, ratio of CC50 for african green monkey Vero cells to CC50 for human HepG2 cells; format: toxicity; conditions: Vero cells and HepG2 cells, read-out: Selectivity Index
[22] = molecular target: T4, Enoyl-[acyl-carrier-protein] reductase [NADH] (Mycobacterium tuberculosis, UniProt P9WGR1); assay: Inhibition of Mycobacterial tuberculosis ATCC 25618 FabI assessed as measuring NADH consumption rate
T4 sequence (P9WGR1 whole entry): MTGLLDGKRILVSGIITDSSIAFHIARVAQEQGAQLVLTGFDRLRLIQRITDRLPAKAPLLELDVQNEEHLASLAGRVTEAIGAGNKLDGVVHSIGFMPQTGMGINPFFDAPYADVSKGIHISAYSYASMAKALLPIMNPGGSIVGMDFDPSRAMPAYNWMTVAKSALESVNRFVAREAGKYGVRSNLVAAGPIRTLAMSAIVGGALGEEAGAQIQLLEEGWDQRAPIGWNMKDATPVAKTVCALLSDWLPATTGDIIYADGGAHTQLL

[23] = molecular target: T2, Enoyl-[acyl-carrier-protein] reductase [NADPH] FabI; assay: Inhibition of Staphylococcus aureus FabI assessed as inhibition of bacterial growth by measuring the NADH consumption rate at 20 mins
Staphylococcus aureus [24] = assay: Antibacterial activity against methicillin-sensitive Staphylococcus aureus assessed as reduction in bacterial growth incubated for 12 hrs by microdilution method; format: functional
[25] = system: Staphylococcus epidermidis; assay: Antibacterial activity against methicillin-sensitive Staphylococcus epidermidis assessed as reduction in bacterial growth incubated for 12 hrs by microdilution method; format: functional
[26] = system: Staphylococcus epidermidis; assay: Antibacterial activity against methicillin-resistant Staphylococcus epidermidis assessed as reduction in bacterial growth incubated for 12 hrs by microdilution method; format: functional
Staphylococcus aureus [27] = assay: Antibacterial activity against Staphylococcus aureus ATCC 29213 assessed as bacterial growth inhibition incubated for 24 hrs by broth dilution method; format: functional
[28] = molecular target: T2, Enoyl-[acyl-carrier-protein] reductase [NADPH] FabI; assay: Inhibition of Staphylococcus aureus ATCC 29213 FabI in the presence of NADH using crotonyl CoA as substrate by measuring NADH consumption rate
Escherichia coli [29] = assay: Antibacterial activity against Escherichia coli BAA 2340 assessed as reduction in microbial growth inhibition; format: functional
Klebsiella pneumoniae = assay: Antibacterial activity against Klebsiella pneumoniae BAA-1705; format: functional
Acinetobacter baumannii = assay: Antibacterial activity against Acinetobacter baumannii W41979; format: functional
Staphylococcus aureus [30] = assay: Antibacterial activity against Staphylococcus aureus assessed as inhibition of bacterial growth measured after 24 hrs; format: functional
[31] = molecular target: T2, Enoyl-[acyl-carrier-protein] reductase [NADPH] FabI; assay: Inhibition of Staphylococcus aureus FabI assessed as inhibition at 10 uM
Staphylococcus aureus [32] = assay: Antibacterial activity against […] Staphylococcus aureus ATCC 29213 assessed as reduction in microbial growth inhibition; format: functional
Escherichia coli [33] = assay: Antibacterial activity against Escherichia coli ATCC 35218 assessed as reduction in microbial growth inhibition; format: functional
Staphylococcus aureus [34] = assay: Antibacterial activity against Staphylococcus aureus ATCC 29213 assessed as reduction in microbial growth inhibition; format: functional
Staphylococcus aureus [35] = assay: Antibacterial activity against Methicillin-resistant Staphylococcus aureus 5912 assessed as reduction in microbial growth inhibition; format: functional
Staphylococcus aureus [36] = assay: Antibacterial activity against Methicillin-resistant Staphylococcus aureus 5749 assessed as reduction in microbial growth inhibition; format: functional
[37] = Cytotoxicity against African green monkey Vero cells assessed as reduction in cell viability measured after 72 hrs by coulter counter method; format: toxicity, cell-based; conditions: chlorocebus sabaeus
Staphylococcus aureus [38] = assay: Antibacterial activity against Staphylococcus aureus ATCC 43300 assessed as reduction in microbial growth inhibition; format: functional
Staphylococcus aureus [39] = assay: Antibacterial activity against Staphylococcus aureus ATCC 43300 assessed as reduction in microbial growth inhibition in presence of carbenicillin; format: functional
Staphylococcus aureus [40] = assay: Antibacterial activity against Staphylococcus aureus ATCC 43300 assessed as reduction in microbial growth inhibition in presence of ceftazidime; format: functional
Staphylococcus aureus [41] = assay: Antibacterial activity against Staphylococcus aureus ATCC 43300 assessed as reduction in microbial growth inhibition in presence of chloramphenicol; format: functional
Escherichia coli [42] = assay: Antibacterial activity against Escherichia coli assessed as bacterial growth inhibition at 50 uM measured after 24 hrs by 96-wellplate reader assay method; format: functional
[43] = system: Mycobacterium tuberculosis; assay: Antimycobacterial activity against Mycobacterium tuberculosis H37Rv after 14 days; format: functional; conditions: 336 h, time 14 day
[44] = Inhibition of Plasmodium falciparum NF54 HDAC using extract measured after 60 mins by fluorescence assay; conditions: read-out: IC50
Plasmodium falciparum = assay: Antimalarial activity against Plasmodium falciparum by LDH assay; format: functional, organism-based

SMILES: CCCc1ccc(Oc2ccc([N+](=O)[O-])cc2Cl)c(O)c1
- IC50 [1]: 500 nM
- MIC (Bacillus anthracis): 1.9 µg/mL (≈ 6.17 µM)
- MIC (Staphylococcus aureus [2]): 0.3 µg/mL (≈ 0.975 µM)
- MBC (Staphylococcus aureus [3]): 1.2 µg/mL (≈ 3.9 µM)
- MBC (Staphylococcus aureus [4]): 2.9 µg/mL (≈ 9.42 µM)
- EC50 (HeLa): 41.1 µg/mL (≈ 134 µM)
- EC50 [5]: 22.6 µg/mL (≈ 73.4 µM)

SMILES: CCc1cc(O)c(Oc2ccc(C(N)=O)cc2F)cc1F
- IC50 [6]: 58 nM
- MIC90 (Staphylococcus aureus [2]): 0.12 µg/mL (≈ 0.409 µM)
- MIC90 (Staphylococcus aureus [7]): 0.03 µg/mL (≈ 0.102 µM)
- ED50 (Staphylococcus aureus [8]): 19.3 mg/kg/day
- ED50 (Staphylococcus aureus [9]): 40 mg/kg/day
- IC50 [10]: 58 nM

SMILES: Cc1c(CN(C)C(=O)/C=C/c2cnc3c(c2)CCC(=O)N3)c2ccccc2n1C
- IC50 [11]: 130 nM
- IC50 [12]: 390 nM

SMILES: Cc1c(C2CN(C(=O)/C=C/c3cnc4c(c3)CCC(=O)N4)C2)oc2ccccc12
- MIC [13]: 0.5 µg/mL (≈ 1.29 µM)
- ED50 (Staphylococcus aureus [14]): 0.9 mg/kg

SMILES: CC1(C)CCC(Cc2cc(O)c(-c3ccccc3)c(=O)[nH]2)CC1
- MIC [15]: 0.05 µM

SMILES: Cc1ccc(C2=NCC(c3ccc(Oc4ccccc4)c(O)c3)C2)cc1 (configuration not stated)
- MIC [16]: 18 µM (≈ 6.18 µg/mL)
- MIC (Staphylococcus aureus [17]): 9 µM (≈ 3.09 µg/mL)
- MIC (Escherichia coli [18]): 18.2 µM (≈ 6.26 µg/mL)
- MIC (Pseudomonas aeruginosa): 18 µM (≈ 6.18 µg/mL)
- CC50 at 48 h [19]: > 596000 nM
- CC50 [20]: > 646000 nM
- selectivity ratio [21]: > 10

SMILES: C=C1C(=O)OC[C@H]1C/C=C(\C)CC(=O)C=C(C)C
- IC50 [22]: 18100 nM

SMILES: Cc1c(CN(C)C(=O)/C=C/c2cnc3c(c2)CCC(=O)N3)oc2ccccc12 [AFN-1252]
- IC50 [23]: 14 nM
- MIC90 (Staphylococcus aureus [24]): ≤ 0.008 µg/mL
- MIC90 [25]: 0.03 µg/mL (≈ 0.0799 µM)
- MIC90 [26]: ≤ 0.008 µg/mL
- MIC (Staphylococcus aureus [27]): 0.008 µg/mL (≈ 0.0213 µM)
- IC50 [28]: 9600 nM
- MIC (Escherichia coli [29]): > 32 µg/mL
- MIC (Klebsiella pneumoniae): > 32 µg/mL
- MIC (Acinetobacter baumannii): > 32 µg/mL

SMILES: CC(C)=CCc1c(O)ccc(C(=O)[C@H]2[C@@H](c3c(O)cc(-c4cc5ccc(O)cc5o4)cc3O)C=C(C)C[C@@H]2c2ccc(O)cc2O)c1O [CHALCOMORACIN]
- MIC (Staphylococcus aureus [30]): 4 µg/mL (≈ 6.17 µM)
- IC50 [31]: 5500 nM

SMILES: C[C@@H](Oc1cc(-c2cnn(C3CCNCC3)c2)cnc1N)c1c(Cl)ccc(F)c1Cl [CRIZOTINIB]
- MIC (Staphylococcus aureus [32]): 31.2 µM
- MIC (Escherichia coli [33]): 250 µM
- MIC (Staphylococcus aureus [34]): 125 µM
- MIC (Staphylococcus aureus [35]): 15.6 µM
- MIC (Staphylococcus aureus [36]): 125 µM
- CC50 at 72 h [37]: 4230 nM
- MIC (Staphylococcus aureus [38]): 7.03 µg/mL
- MIC (Staphylococcus aureus [39]): 2 µg/mL
- MIC (Staphylococcus aureus [40]): 4 µg/mL
- MIC (Staphylococcus aureus [41]): 2 µg/mL

SMILES: Oc1cc(Cl)ccc1Oc1ccc(Cl)cc1Cl [TRICLOSAN]
- MIC (Staphylococcus aureus [30]): 0.016 µg/mL (≈ 0.0553 µM)
- MIC (Escherichia coli [42]): 0.3 µg/mL (≈ 1.04 µM)
- MIC [43]: 12.5 µg/mL (≈ 43.2 µM)
- IC50 [44]: 73 nM
- EC50 (Plasmodium falciparum): 0.8 µg/mL (≈ 2.76 µM)
